Test results reported in ChEMBL document CHEMBL4483862, “Open-source discovery of chemical leads for next-generation chemoprotective antimalarials” (2018).

Test system: Plasmodium berghei
Assay: Luciferase/luciferin-expressing antifolate-resistant parasites were used to infect a culture of HepG2 cells that were pre-incubated with compounds. Infected hepatocytes emit light due to the luciferase reaction. Assay results are presented as the percent inhibition of light emission compared to control. […]
Type: functional
Conditions: sporozoite; for IC90: read-out: LUCIFERASE INFECTION ASSAY - IC90

Compound | IC90 | other results
O=C(OC1CCCCC1)c1ccc(NC(=O)C2CCCCC2)cc1 | > 10 µM | IC50 (PBLUC_HILL_SLOPE 6.21, PBLUC_R_SQUARED 0.113, read-out: LUCIFERASE INFECTION ASSAY - IC50): 9.48 µM
Cc1cc(C(C)(C)C)cc(C)c1S(=O)(=O)N1CC(=O)Nc2ccccc21 | > 8.86 µM | IC50 (PBLUC_HILL_SLOPE 6.12, PBLUC_R_SQUARED 0.785, read-out: LUCIFERASE INFECTION ASSAY - IC50): 6.84 µM
CC(C)c1ccc(NC(=O)Nc2nc(C(N)C3CCCCC3)cs2)cc1 (configuration not stated) | > 8.86 µM | IC50 (PBLUC_HILL_SLOPE 7.05, PBLUC_R_SQUARED 0.602, read-out: LUCIFERASE INFECTION ASSAY - IC50): 7.75 µM
O=C(Nc1ccccc1)N1CCc2sccc2C1c1ccc(C(F)(F)F)cc1 (configuration not stated) | 5.93 µM | IC50 (PBLUC_HILL_SLOPE 6.19, PBLUC_R_SQUARED 0.577, read-out: LUCIFERASE INFECTION ASSAY - IC50): 4.16 µM
OC1(c2ccc(F)cc2)CS/C(=N\c2cccnc2)N1Cc1ccco1 (configuration not stated) | > 10 µM | IC50 (PBLUC_HILL_SLOPE 6.5, PBLUC_R_SQUARED 0.331, read-out: LUCIFERASE INFECTION ASSAY - IC50): 8.78 µM
COc1cccc(NC(=O)Nc2nc(-c3cc4ccccc4o3)cs2)c1 | 7.91 µM | IC50 (PBLUC_HILL_SLOPE 6.07, PBLUC_R_SQUARED 0.713, read-out: LUCIFERASE INFECTION ASSAY - IC50): 5.5 µM
O=C(Nc1ccc(OC(F)F)c(Cc2ccccc2)c1)c1ccc(-n2ccnc2)nc1 | > 10 µM | IC50 (PBLUC_HILL_SLOPE 6.37, PBLUC_R_SQUARED 0.721, read-out: LUCIFERASE INFECTION ASSAY - IC50): 8.94 µM
COc1ccc(-n2c(C)cc(/C=C(\C#N)C(=O)NCC(c3cccs3)N3CCOCC3)c2C)cc1 (configuration not stated) | > 10 µM | IC50 (PBLUC_HILL_SLOPE 6.75, PBLUC_R_SQUARED 0.0585, read-out: LUCIFERASE INFECTION ASSAY - IC50): > 10 µM
COC(=O)c1cc(NC(=O)Nc2cc(Cl)cc(Cl)c2)ccc1N1CCOCC1 | 4.16 µM | IC50 (PBLUC_HILL_SLOPE 7.3, PBLUC_R_SQUARED 0.704, read-out: LUCIFERASE INFECTION ASSAY - IC50): 3.08 µM
COc1ccc(-c2cc([N+](=O)[O-])ccc2OC(C)C(=O)N2CCC(C)CC2)cc1 (configuration not stated) | 4.24 µM | IC50 (PBLUC_HILL_SLOPE 7.12, PBLUC_R_SQUARED 0.553, read-out: LUCIFERASE INFECTION ASSAY - IC50): 3.11 µM
Cc1ccccc1OCC(O)CN(CC(C)C)CC(C)C (configuration not stated) | > 10 µM | IC50 (PBLUC_HILL_SLOPE 6.96, PBLUC_R_SQUARED 0.782, read-out: LUCIFERASE INFECTION ASSAY - IC50): 8.86 µM
COc1ccc(-c2cnc3cnc(-c4ccccc4)cn23)cn1 | > 10.9 µM | IC50 (PBLUC_HILL_SLOPE 7.01, PBLUC_R_SQUARED 0.635, read-out: LUCIFERASE INFECTION ASSAY - IC50): 9.42 µM
COc1ccc(-c2cnc3cnc(-c4ccc(CO)cc4)cn23)cn1 | 9.63 µM | IC50 (PBLUC_HILL_SLOPE 6.35, PBLUC_R_SQUARED 0.601, read-out: LUCIFERASE INFECTION ASSAY - IC50): 6.81 µM
CC(Cn1cccn1)NC(=O)C(=O)Nc1ccccc1SC1CCCC1 (configuration not stated) | 5.88 µM | IC50 (PBLUC_HILL_SLOPE 6.42, PBLUC_R_SQUARED 0.787, read-out: LUCIFERASE INFECTION ASSAY - IC50): 4.18 µM
Cc1nn(-c2ccccc2)c(C)c1C(=O)NCc1cccc(NC(=O)C(C)C)c1 | 7.7 µM | IC50 (PBLUC_HILL_SLOPE 6.57, PBLUC_R_SQUARED 0.408, read-out: LUCIFERASE INFECTION ASSAY - IC50): 5.51 µM
O=[N+]([O-])c1ccc(Oc2c(Cl)cc(S(=O)(=O)N3CCCCC3)cc2Cl)c(Cl)c1 | > 7.09 µM | IC50 (PBLUC_HILL_SLOPE 7.39, PBLUC_R_SQUARED 0.0349, read-out: LUCIFERASE INFECTION ASSAY - IC50): > 7.09 µM
CC(C)(C)C(=O)Nc1ccc(-c2csc(-n3nccc3C(F)(F)F)n2)cc1 | > 10 µM | IC50 (PBLUC_HILL_SLOPE 6.43, PBLUC_R_SQUARED 0.126, read-out: LUCIFERASE INFECTION ASSAY - IC50): 8.51 µM
CSc1nnnn1-c1cccc(NC(=O)c2cc(-c3cccs3)nc3c2cnn3C(C)C)c1 | > 10 µM | IC50 (PBLUC_HILL_SLOPE 6.42, PBLUC_R_SQUARED 0.137, read-out: LUCIFERASE INFECTION ASSAY - IC50): > 10 µM
N#C/C(=N\Nc1cccc(Cl)c1Cl)C(N)=S | > 12.1 µM | IC50 (PBLUC_HILL_SLOPE 7.41, PBLUC_R_SQUARED 0.441, read-out: LUCIFERASE INFECTION ASSAY - IC50): > 12.1 µM
CC(C)(C)OC(=O)NC1CCN(C(=O)Nc2cc(Cl)cc(Cl)c2)CC1 | > 8.5 µM | IC50 (PBLUC_HILL_SLOPE 7.08, PBLUC_R_SQUARED 0.106, read-out: LUCIFERASE INFECTION ASSAY - IC50): > 8.5 µM
OC(c1ccc(Cl)cc1)c1nnc(Nc2ccc(Oc3ccccc3)cc2)s1 (configuration not stated) | > 10 µM | IC50 (PBLUC_HILL_SLOPE 7.15, PBLUC_R_SQUARED 0.699, read-out: LUCIFERASE INFECTION ASSAY - IC50): 8.48 µM

Compound | IC90 | other results
CC(C)(O)C#Cc1ccc(/C=N/Nc2cccc(C(F)(F)F)n2)cc1 | 6.05 µM | IC50 (PBLUC_HILL_SLOPE 6.25, PBLUC_R_SQUARED 0.631, read-out: LUCIFERASE INFECTION ASSAY - IC50): 4.26 µM
CNc1nc2cnc(-c3cncc(OC)c3)cc2n1Cc1ccc(OC)c(OC)c1 | > 10 µM | IC50 (PBLUC_HILL_SLOPE 6.98, PBLUC_R_SQUARED 0.0782, read-out: LUCIFERASE INFECTION ASSAY - IC50): 8.17 µM
Fc1cccc(Cl)c1CSc1nnc(-c2cc(C(F)(F)F)cc(C(F)(F)F)c2)[nH]1 | > 7.24 µM | IC50 (PBLUC_HILL_SLOPE 6.81, PBLUC_R_SQUARED 0.556, read-out: LUCIFERASE INFECTION ASSAY - IC50): > 7.24 µM
Cc1ccc(CN(C)C(=O)C2CCN(c3ncnc4sc(C)c(C)c34)CC2)o1 | > 10 µM | IC50 (PBLUC_HILL_SLOPE 6.95, PBLUC_R_SQUARED 0.517, read-out: LUCIFERASE INFECTION ASSAY - IC50): 8.99 µM
Cc1sc2nc(-c3cccnc3)nc(Nc3ccc(N(C)C)nc3)c2c1C | 5.59 µM | IC50 (PBLUC_HILL_SLOPE 6.08, PBLUC_R_SQUARED 0.68, read-out: LUCIFERASE INFECTION ASSAY - IC50): 3.9 µM
CC(OC(=O)CCc1nc2cc(Cl)ccc2n(Cc2ccccc2)c1=O)C(=O)N1CCCC1 (configuration not stated) | 5 µM | IC50 (PBLUC_HILL_SLOPE 7.3, PBLUC_R_SQUARED 0.693, read-out: LUCIFERASE INFECTION ASSAY - IC50): 3.7 µM
CCCS(=O)(=O)/C(C#N)=N/Nc1cc(C(F)(F)F)cc(C(F)(F)F)c1 | 4.41 µM | IC50 (PBLUC_HILL_SLOPE 6.87, PBLUC_R_SQUARED 0.748, read-out: LUCIFERASE INFECTION ASSAY - IC50): 3.21 µM
O=C(Nc1ccccc1)Nc1cncc(C#Cc2ccccc2)c1 | 10.2 µM | IC50 (PBLUC_HILL_SLOPE 6.32, PBLUC_R_SQUARED 0.624, read-out: LUCIFERASE INFECTION ASSAY - IC50): 7.23 µM
Cc1c(-c2ccccc2)oc2c(C(=O)N3CCc4ccccc4C3)cccc2c1=O | > 10 µM | IC50 (PBLUC_HILL_SLOPE 6.24, PBLUC_R_SQUARED 0.0221, read-out: LUCIFERASE INFECTION ASSAY - IC50): > 10 µM
C#CCOc1ccc(CNCCc2ccccc2)cc1OCC | > 9.54 µM | IC50 (PBLUC_HILL_SLOPE 6.85, PBLUC_R_SQUARED 0.0184, read-out: LUCIFERASE INFECTION ASSAY - IC50): > 9.54 µM
CCCCOc1ccc(Nc2nc(C(N)c3ccccc3Cl)cs2)nn1 (configuration not stated) | 8.44 µM | IC50 (PBLUC_HILL_SLOPE 6.47, PBLUC_R_SQUARED 0.485, read-out: LUCIFERASE INFECTION ASSAY - IC50): 6.01 µM
Cc1ccccc1-c1cn2c(-c3ccc(Cl)cc3)cnc2cn1 | 5.18 µM | IC50 (PBLUC_HILL_SLOPE 7.25, PBLUC_R_SQUARED 0.317, read-out: LUCIFERASE INFECTION ASSAY - IC50): 3.83 µM
O=C(Cc1ccsc1)Nc1nc(-c2ccccn2)cs1 | 8.87 µM | IC50 (PBLUC_HILL_SLOPE 6.07, PBLUC_R_SQUARED 0.668, read-out: LUCIFERASE INFECTION ASSAY - IC50): 6.18 µM
COc1ccc(C2CC(c3ccccc3)=Nc3ccccc3S2)cc1 (configuration not stated) | > 9.55 µM | IC50 (PBLUC_HILL_SLOPE 6.73, PBLUC_R_SQUARED 0.0739, read-out: LUCIFERASE INFECTION ASSAY - IC50): > 9.55 µM
CCCn1c(NC(=O)C2CCCCN2S(=O)(=O)c2ccccc2)nc2ccccc21 (configuration not stated) | 7.71 µM | IC50 (PBLUC_HILL_SLOPE 7.3, PBLUC_R_SQUARED 0.749, read-out: LUCIFERASE INFECTION ASSAY - IC50): 5.71 µM
CC(Nc1ccc(Cc2nc3ccccc3s2)cc1)C(=O)N1CCNC1=O (configuration not stated) | 9.74 µM | IC50 (PBLUC_HILL_SLOPE 6.15, PBLUC_R_SQUARED 0.163, read-out: LUCIFERASE INFECTION ASSAY - IC50): 6.81 µM
COc1ccc(-c2cc(-c3cc(C)ccc3O)c3c(n2)-c2ccccc2C3=O)cc1 | > 10 µM | IC50 (PBLUC_HILL_SLOPE 6.66, 3.32, PBLUC_R_SQUARED 0.385, 0.180, read-out: LUCIFERASE INFECTION ASSAY - IC50): 9.15 µM
CC(C)c1ccc(-n2c(SCc3ccccc3Cl)nnc2-c2ccc(C(C)(C)C)cc2)cc1 | 4.57 µM | IC50 (PBLUC_HILL_SLOPE 6.16, PBLUC_R_SQUARED 0.605, read-out: LUCIFERASE INFECTION ASSAY - IC50): 3.2 µM
NNc1nc(C(F)(F)F)nc2c1cnn2-c1ccccc1 | 5.03 µM | IC50 (PBLUC_HILL_SLOPE 6.68, PBLUC_R_SQUARED 0.4, read-out: LUCIFERASE INFECTION ASSAY - IC50): 3.62 µM
Cc1nc(-c2ccccn2)nc(NCCc2ccccc2)c1Cl | 5.38 µM | IC50 (PBLUC_HILL_SLOPE 7.11, PBLUC_R_SQUARED 0.141, read-out: LUCIFERASE INFECTION ASSAY - IC50): 3.95 µM
